According to PubChem BioAssay (NCI):
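Cultured in 96-well plates, cells were exposed to test compound for 48 hours across five concentrations. GI50: concentration for 50% inhibition of growth. At the TGI there is no net growth.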

Tests used:
Assay in all cases: NCI tumour cell line growth inhibition, 48 h
K-562 leukemia = tested on: K-562 leukemia
NCI-H522 lung = tested on: NCI-H522 lung
RPMI-8226 leukemia = tested on: RPMI-8226 leukemia
SF-539 CNS = tested on: SF-539 CNS
OVCAR-5 ovarian = tested on: OVCAR-5 ovarian
SW-620 colon = tested on: SW-620 colon
PC-3 prostate = tested on: PC-3 prostate
SK-MEL-28 melanoma = tested on: SK-MEL-28 melanoma
KM12 colon = tested on: KM12 colon
HCC-2998 colon = tested on: HCC-2998 colon

Row | Structure (SMILES) | GI50 (K-562 leukemia) [µM] | TGI (K-562 leukemia) [µM] | GI50 (NCI-H522 lung) [µM] | TGI (NCI-H522 lung) [µM] | GI50 (RPMI-8226 leukemia) [µM] | TGI (RPMI-8226 leukemia) [µM] | GI50 (SF-539 CNS) [µM] | TGI (SF-539 CNS) [µM] | GI50 (OVCAR-5 ovarian) [µM] | TGI (OVCAR-5 ovarian) [µM] | GI50 (SW-620 colon) [µM] | TGI (SW-620 colon) [µM] | GI50 (PC-3 prostate) [µM] | TGI (PC-3 prostate) [µM] | GI50 (SK-MEL-28 melanoma) [µM] | TGI (SK-MEL-28 melanoma) [µM] | GI50 (KM12 colon) [µM] | TGI (KM12 colon) [µM] | GI50 (HCC-2998 colon) [µM] | TGI (HCC-2998 colon) [µM]
1 | COc1cc(C(=O)N2CCN(c3ccccc3OC)CC2)c(N)cc1OCc1ccccc1 | 27.2 | > 100 | 25.9 | 80.6 | 21.1 | 49.2 | 45.3 | > 100 | 80.6 | > 100 | 41.1 | > 100 | 23.8 | > 100 | 43.4 | > 100 | 32.9 | 90.6 | 40 | > 100
2 | Oc1ccc2ccccc2c1C(c1ccc(Cl)cc1)c1c(O)ccc2ccccc12 | – | 10.6 | – | 5.17 | – | 5.21 | – | 31.4 | – | 12 | – | 18.4 | – | 7.7 | – | 15.9 | – | 7.87 | – | 6.34
3 | N#Cc1c(-c2ccc(Cl)cc2)c(-c2ccc(Cl)cc2)nn(CCOC(=O)CCC(=O)O)c1=O | – | 41 | – | 4.88 | – | > 60 | – | 1.49 | – | > 100 | – | > 100 | – | > 48.4 | – | > 85.6 | – | 71.2 | – | 16.1
4 | Cc1ccc(/C=C/C(=O)c2ccc(N)cc2)c(C)c1 | 2.03 | 4.84 | 0.379 | 1.67 | 2.12 | 4.99 | 2.39 | 5.45 | 7.32 | 27.9 | 1.92 | 3.88 | 14.6 | 28.2 | 16.6 | 30.3 | 4.38 | 16.8 | 15.6 | 30.6
5 | COc1ccc2c(c1)C(=O)/C(=C/c1ccc([N+](=O)[O-])s1)O2 | 0.291 | 12.2 | 0.195 | 0.395 | 0.26 | 0.843 | 0.352 | 1.41 | 1.6 | 3.34 | 0.211 | 0.507 | 0.283 | – | 0.248 | 0.689 | 0.235 | 0.51 | 0.514 | 2.05
6 | O=C(N/N=c1/ccoc2cccnc12)N1CCN(c2ncccn2)CC1 | < 0.01 | 4.82 | 1.02 | 17.2 | < 0.01 | 2.04 | 1.39 | 9.58 | 1.5 | 38.3 | < 0.0131 | 10.6 | < 0.01 | 6.38 | 0.996 | 13.3 | 0.371 | 10.2 | 0.905 | 6.59
7 | CCCCCCCCCCCCCCCCOC(=O)c1c(C)[nH]c(/C=C2\N=C(c3ccc[nH]3)C=C2OC)c1C | 0.413 | > 100 | 5.69 | > 70.1 | 0.0958 | > 100 | 2.3 | 13.6 | 0.718 | – | 0.182 | > 100 | 0.162 | > 100 | 3.94 | > 48.7 | 0.102 | > 100 | 0.244 | 14.9
